Measured values as given in ChEMBL document CHEMBL1150977, “A quantitative analysis of kinase inhibitor selectivity” (Nat Biotechnol, 2008).
pKd: −log10 of the molar value.

Tests used:
[1] = target: Calcium/calmodulin-dependent protein kinase kinase 2 (Homo sapiens, UniProt Q96RR4)
[2] = target: Serine/threonine-protein kinase pim-2 (Homo sapiens, UniProt Q9P1W9)
[3] = target: T1, Mitogen-activated protein kinase kinase kinase 5 (Homo sapiens, UniProt Q99683)
T1 sequence (Q99683 whole entry): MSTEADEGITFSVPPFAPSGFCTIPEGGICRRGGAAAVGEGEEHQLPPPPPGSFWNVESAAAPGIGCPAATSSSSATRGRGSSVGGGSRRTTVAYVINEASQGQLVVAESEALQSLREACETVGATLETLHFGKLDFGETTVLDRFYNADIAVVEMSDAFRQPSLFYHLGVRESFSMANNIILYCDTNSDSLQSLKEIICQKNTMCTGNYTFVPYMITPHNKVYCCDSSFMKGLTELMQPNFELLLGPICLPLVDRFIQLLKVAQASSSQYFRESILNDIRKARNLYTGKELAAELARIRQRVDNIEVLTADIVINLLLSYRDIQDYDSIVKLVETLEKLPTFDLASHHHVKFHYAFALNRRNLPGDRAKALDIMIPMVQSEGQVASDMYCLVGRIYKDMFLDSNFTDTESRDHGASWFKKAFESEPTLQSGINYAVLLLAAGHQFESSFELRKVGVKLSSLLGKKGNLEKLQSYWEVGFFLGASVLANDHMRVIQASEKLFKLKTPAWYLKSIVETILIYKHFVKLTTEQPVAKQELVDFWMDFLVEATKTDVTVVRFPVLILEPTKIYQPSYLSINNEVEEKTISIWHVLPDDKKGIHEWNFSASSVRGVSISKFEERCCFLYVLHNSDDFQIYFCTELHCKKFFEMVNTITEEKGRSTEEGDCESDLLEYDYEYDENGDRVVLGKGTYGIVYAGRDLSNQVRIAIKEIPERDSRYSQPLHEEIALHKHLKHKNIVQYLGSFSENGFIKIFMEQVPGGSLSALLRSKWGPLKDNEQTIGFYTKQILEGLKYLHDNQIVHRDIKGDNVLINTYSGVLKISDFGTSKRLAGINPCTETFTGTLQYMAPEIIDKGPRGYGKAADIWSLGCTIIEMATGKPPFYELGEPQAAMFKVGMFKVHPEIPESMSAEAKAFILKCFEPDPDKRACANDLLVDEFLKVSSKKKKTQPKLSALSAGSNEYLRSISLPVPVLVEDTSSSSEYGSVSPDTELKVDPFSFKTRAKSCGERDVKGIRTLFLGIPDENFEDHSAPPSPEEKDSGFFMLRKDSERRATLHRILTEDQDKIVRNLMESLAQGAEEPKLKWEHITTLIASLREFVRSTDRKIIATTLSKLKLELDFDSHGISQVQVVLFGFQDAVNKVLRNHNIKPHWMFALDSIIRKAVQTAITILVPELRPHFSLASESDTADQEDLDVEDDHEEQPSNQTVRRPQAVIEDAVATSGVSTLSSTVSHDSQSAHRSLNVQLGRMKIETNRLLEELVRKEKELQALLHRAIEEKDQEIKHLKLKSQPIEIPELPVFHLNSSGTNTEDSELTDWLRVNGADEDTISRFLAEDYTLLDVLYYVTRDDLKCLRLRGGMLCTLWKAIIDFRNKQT

[4] = target: T2, Dual specificity protein kinase TTK (Homo sapiens, UniProt P33981)
T2 sequence (P33981 whole entry): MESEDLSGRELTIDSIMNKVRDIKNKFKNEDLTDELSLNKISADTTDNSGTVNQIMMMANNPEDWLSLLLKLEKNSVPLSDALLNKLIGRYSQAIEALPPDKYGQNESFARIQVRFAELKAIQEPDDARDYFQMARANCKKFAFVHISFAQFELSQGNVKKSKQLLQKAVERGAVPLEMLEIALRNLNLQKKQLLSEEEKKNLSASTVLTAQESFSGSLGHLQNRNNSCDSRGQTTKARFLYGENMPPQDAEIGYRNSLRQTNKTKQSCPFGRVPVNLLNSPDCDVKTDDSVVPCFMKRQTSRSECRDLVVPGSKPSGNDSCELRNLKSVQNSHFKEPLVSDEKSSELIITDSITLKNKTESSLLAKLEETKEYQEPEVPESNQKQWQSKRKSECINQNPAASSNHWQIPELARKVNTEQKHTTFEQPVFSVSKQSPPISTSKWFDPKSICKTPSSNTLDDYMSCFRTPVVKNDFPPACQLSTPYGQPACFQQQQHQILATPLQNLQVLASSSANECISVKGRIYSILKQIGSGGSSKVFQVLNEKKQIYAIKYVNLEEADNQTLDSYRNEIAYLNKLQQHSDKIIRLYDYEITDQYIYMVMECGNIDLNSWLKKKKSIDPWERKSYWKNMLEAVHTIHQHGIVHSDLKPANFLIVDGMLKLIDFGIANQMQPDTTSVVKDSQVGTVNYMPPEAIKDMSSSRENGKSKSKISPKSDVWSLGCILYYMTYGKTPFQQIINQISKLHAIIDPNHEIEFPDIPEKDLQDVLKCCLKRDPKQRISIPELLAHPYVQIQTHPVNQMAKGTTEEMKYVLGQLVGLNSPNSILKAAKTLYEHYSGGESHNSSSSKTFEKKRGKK

Calcium/calmodulin-dependent protein kinase kinase 2, sequence (Q96RR4 whole entry): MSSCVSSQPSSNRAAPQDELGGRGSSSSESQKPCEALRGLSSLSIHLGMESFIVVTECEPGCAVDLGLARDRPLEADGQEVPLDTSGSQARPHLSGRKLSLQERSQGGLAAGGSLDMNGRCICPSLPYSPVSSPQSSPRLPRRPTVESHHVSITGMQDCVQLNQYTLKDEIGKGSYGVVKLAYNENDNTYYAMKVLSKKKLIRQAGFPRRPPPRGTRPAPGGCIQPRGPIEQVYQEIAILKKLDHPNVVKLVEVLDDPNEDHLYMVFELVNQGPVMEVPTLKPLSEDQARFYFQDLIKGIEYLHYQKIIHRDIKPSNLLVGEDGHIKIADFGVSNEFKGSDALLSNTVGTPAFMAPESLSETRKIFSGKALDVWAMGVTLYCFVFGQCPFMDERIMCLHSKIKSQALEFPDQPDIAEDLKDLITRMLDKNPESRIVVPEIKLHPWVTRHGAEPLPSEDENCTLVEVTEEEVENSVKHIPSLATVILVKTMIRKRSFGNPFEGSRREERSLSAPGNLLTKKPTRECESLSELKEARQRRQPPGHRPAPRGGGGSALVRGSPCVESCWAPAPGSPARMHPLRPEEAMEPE
Serine/threonine-protein kinase pim-2, sequence (Q9P1W9 whole entry): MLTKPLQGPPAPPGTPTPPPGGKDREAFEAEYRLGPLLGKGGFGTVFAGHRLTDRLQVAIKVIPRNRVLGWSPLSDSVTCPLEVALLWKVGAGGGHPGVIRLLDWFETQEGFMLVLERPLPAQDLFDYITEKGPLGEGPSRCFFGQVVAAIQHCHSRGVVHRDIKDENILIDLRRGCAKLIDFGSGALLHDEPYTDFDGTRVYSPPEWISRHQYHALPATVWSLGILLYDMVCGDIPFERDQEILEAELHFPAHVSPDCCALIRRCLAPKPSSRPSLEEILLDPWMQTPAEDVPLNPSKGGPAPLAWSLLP

| SMILES | pKd [1] | pKd [2] | pKd [3] | pKd [4] |
| --- | --- | --- | --- | --- |
| COCC(=O)NC/C=C/c1ccc2ncnc(Nc3ccc(Oc4ccc(C)nc4)c(C)c3)c2c1 [CP-724714] | < 5.00 | < 5.00 | < 5.00 | < 5.00 |
| CCOc1cc2ncc(C#N)c(Nc3ccc(F)c(Cl)c3)c2cc1NC(=O)/C=C/CN(C)C [PELITINIB] | – | < 5.00 | < 5.00 | < 5.00 |
| NC(=O)c1ccc(-c2nc(-c3ccc4c(c3)OCO4)c(-c3ccccn3)[nH]2)cc1 [SB-431542] | < 5.00 | < 5.00 | < 5.00 | < 5.00 |
| Nc1nc(Nc2ccc(S(N)(=O)=O)cc2)nn1C(=O)c1c(F)cccc1F [JNJ-7706621] | – | < 5.00 | < 5.00 | – |
| Oc1ccc(-c2nc(-c3ccncc3)c(-c3ccc(F)cc3)[nH]2)cc1 [SB-202190] | < 5.00 | < 5.00 | < 5.00 | 5.35 |
